A short description of data set [1]: Vasorelaxant potency.
Data set [2] deals with C3H mice. Description: Hair growth (hair follicle stimulation) in C3H mouse model, topical application. To be noted: for percent of animals showing hair follicle stimulation / time of onset of follicle stimulation: 2% solution topical 1x daily; for time of onset of follicle stimulation: male C3H mice, 5 days per week. The data set is classed as in vivo. The source says:
The two enantiomers were compared topically for hair growth in C3H mice.
The C3H mouse is a useful model for studying hair growth. Its usefulness rests with the fact that skin pigmentation of this animal is provided by the melanocytes of the hair follicle and not the epidermis. In the telogen or the resting phase of the hair follicle, the skin is pink. In the earliest phase of anagen or the growth phase, there is sudden graying of the skin and as the anagen phase progresses the skin becomes darker in color. In this study, visual observation was used as an in vivo assay of anagen induction. Furthermore as anagen develops, the skin thickness increases from a thin telogen skin to a measurably thickened anagen skin. Thus, recording the skin color and microscopic thickness of skin from these mice offers a sensitive, quantifiable and convenient method of assessing the phases of hair growth.
Groups of 20, six to seven week old male C3H mice with hair follicles in the resting phase of hair growth were used. At this stage in their life, the hair follicles remain in the telogen phase for up to 30 days or longer. This provides an adequate window of time to screen drugs. […] This stimulation is manifested by the shortening of the telogen phase of the hair follicle cycle.
Animals were anesthetized with ketamine/rompun (100 mg/Kg and 12 mg/Kg) IP and the hair over a defined dorsal area were closely clipped.
The vehicle employed was ethanol/propylene glycol/water, 60/30/10. Treatment was continued for at least 4-5 weeks.
Animals were observed daily for side effects and changes to the test sites. All observations were documented. Test sites were graded weekly for changes in skin color and hair growth. In this study drug effects were evaluated using the visual observation of skin changing from pink to gray and resulting in hair growth.

Each structure is given as a SMILES string.

By melting point is commonly meant the temperature, or range, at which the solid turns liquid. One may read the IC50 as the concentration at which inhibition is half-maximal. A lower IC50 goes with greater potency. Compound `C[C@@H](NC(=NC#N)Nc1ccc(C#N)cc1)C(C)(C)C` [Example 1, (R)-4-[[(Cyanoimino)[(1,2,2-trimethylpropyl)amino]-methyl]amino]benzonitrile] showed a melting point of 159 to 160 °C. In data set [1], this compound registered a half-inhibitory concentration (IC50) of 47 ± 17 nM. Moreover, the “onset of action compared to the corresponding enantiomer” value in data set [2] (C3H mice, versus (S)-enantiomer) was “faster onset of action”. Besides, the “percent of animals showing hair follicle stimulation” value (“percent” for short) in data set [2] (by day 11 of treatment) is listed as 40%. In addition, the “percent” value in data set [2] (by day 14) is 50%. The “percent” value in data set [2] (by day 28) is 85%. Further, in data set [2], the “time of onset of follicle stimulation” value is 7 days. The “hair growth promoting ability relative to the (S)-enantiomer” value in data set [2] (producing hair growth within 11 days of treatment) was 8 times. Also, in data set [2] (throughout the treatment period, versus Example 2-(S)-enantiomer), the “incidence of hair follicle stimulation compared to the other enantiomer” value is “higher incidence of hair follicle stimulation”.
`C[C@H](NC(=NC#N)Nc1ccc(C#N)cc1)C(C)(C)C` [Example 2, (S)-4-[[(Cyanoimino)[(1,2,2-trimethylpropyl)amino]-methyl]amino]benzonitrile] showed a melting point of 158 to 159 °C. This compound also showed an IC50 in data set [1] of 157 ± 35 nM. For the same compound, the “percent” value in data set [2] (by day 11 of treatment) came to 5%. For the same compound, the “percent” value in data set [2] (by day 14) was 25%. Further, in data set [2] (by day 28), the “percent” value was 65%. For the same compound, the “time of onset of follicle stimulation” value in data set [2] came to 11 days.

Source of the values: patent US6458835B2, “Method of inhibiting or treating chemotherapy-induced hair loss” (Bristol-Myers Squibb Company, priority 1997, dated 2002).
